# Measurements as given in patent publication EP1488698A1, “Compositions for descreasing intracellular inositol trisphosphate concentration and uses thereof” (priority 1995, dated 1997).
# Columns and labels:
# [1] = tested on: phospholipase C isoforms beta, delta, and gamma; assay: Free phospholipase C activity in solution (kinetics); type: biochemical; conditions: for KM / diminution in Vmax / increase in calcium ion concentration required for optimal activity: 10 µM lysocerebroside or 5 µM lysosphingomyelin
# Procedure: The effects of sphingosine, lysocerebroside, and lysosphingomyelin on the kinetics of pure, immunologically isolated phospholipase C isoforms beta, delta, and gamma (which are commercially available) was examined. For each isoform, 10 µM sphingosine was added to a reaction medium consisting of 1 µg phospholipase C isoform/ml, Tris-malate buffer (50 mM, pH 7.0) containing 100 µM phosphatidyl inositol bis-phosphate tri-ammonium salt, 0.01 µCi tritium labeled phosphatidyl inositol bis-phosphate, 100 mM NaCl, 10 mM CaCl2, and 5 mM 2-merceptoethanol.
# [2] = tested on: Intact neurons; assay: Lysosphingolipid loading of intact neurons (fluorescence tagging); type: in vitro ADME, chick; conditions: 10 μmolar exposure
# Source text: (§1) Total lipids were removed from the neuron samples by repeated extraction with chloroform:methanol (2:1, vol:vol). The lysosphingolipids were separated from total neuronal lipid in 90 ± 5 % recovery yield (n = 10) by the stepped chromatographic procedure of Van Veldhoven et al. (Anal. Biochem. 183:177-189, 1989). The recovered lysosphingolipids were stably tagged with NBDZF by the rapid procedure of Nozowa et al. (supra). The fluorescence tagged neuronal lysosphingolipids were separated in parallel with reference standards NBDZF-Sph, NBDZF-Psy, and NBDZF-Lsm on high performance silica gel thin layer chromatography plates with acetonitrile:H2O (10:0.5, vol:vol). The highly fluorescent, well separated bands were scraped from the plate. The fluorescence tagged lysosphingolipids are eluted from the scraped silica gel with methanol:1 N HCl (1:0.02, vol:vol). The fluorescence tagged lysosphingolipid eluates were quantitated against reference standards by fluorescence measurement in a Perkin-Elmer LS-5 Fluorescence Spectrometer.
# Sphingolipid content of neurons exposed to sphingosine, lysocerebroside, and lysosphingomyelin was examined as follows. A Petri dish containing approximately 10^7 neurons was incubated with 5 µCi [^3H]myo-Ins in 3 ml DMEM overnight to prelabel the phosphoinositide InsP3 may contain. The neurons were washed with PBS and 3 ml of PBS containing 4.5 g/l glucose was added. Preparations of sphingosine, lysocerebroside, lysosphingomyelin (Sigma Chemical Co., St. Louis, MO) and combinations of each were prepared as the hydrochloride salt dissolved in PBS. The lysosphingolipids were added to the Petri dishes to produce a concentration ranging from 0 - 150 µM. […] Trypsinization removes non-specifically bound lysosphingolipids that may adhere to extracellular plasma membrane protein domains. Non-specific adherence between cationic micelles of lysosphingolipids and the neuronal glycocalyx is avoided by performing the experiments with lysosphingolipid concentrations below the critical micelle concentration. Neurons were analyzed for lysosphingolipid content as described above.
# The suspended plasma membrane preparation was apportioned into 250 µl samples, each providing approximately 100 µg membrane protein. Sphingosine, psychosine, and lysosphingomyelin were added to each plasma membrane sample. The samples were held at room temperature for 3 hours, centrifuged at 300,000 X g for 30 minutes, and the supernatant discarded. Samples were analyzed for lysosphingolipid loading (i.e., membrane lysosphingolipid content following exposure to exogenous sphingolipid) by fluorescence tagging. Table 2 provides the results of exposure of plasma membrane samples to 10 µM lysosphingolipids. Values are reported in pmoles lysosphingolipid/mg plasma membrane protein. Values obtained for isolated plasma membrane and intact neurons are compared.
# [3] = tested on: cultured neurons; assay: Lysosphingolipid content of cultured neurons by NBDZF fluorescence tagging; type: cell-based, chick; conditions: following exposure to 50 µM lysosphingolipid for 1 hour
# Source text: Agonist-binding to metabotropic receptors influences the levels of lysosphingolipid in neuronal membranes. However, there is no convenient methodology available for the measurement of lysosphingolipid content in cultured neurons. As a result, a sensitive method of fluorometric tracing has been devised and is described herein. The measurement of lysosphingolipid content in cultured neurons is based on the stable fluorescence-tagging procedure using 4-fluoro, 7-nitrobenzofuran (NBDZF) described by Nozowa et al J. Neutochem. 59:607-609, 1992). The procedure was applied to: resting neurons; neurons exposed to 100 µM metabotropic receptor agonist for 1 hour; resting neurons exogenously enriched in lysosphingolipids; and neurons exogenously enriched in lysosphingolipids and exposed to metabotropic receptor agonist for 1 hour. The neurons were scraped in batches of 10^7 (1 Petri dish, approximately 8 cm in diameter, is equivalent to 2 mg membrane protein) and subjected to anaylsis.
# as §1
# Sphingolipid content of neurons exposed to sphingosine, lysocerebroside, and lysosphingomyelin was examined as follows. A Petri dish containing approximately 10^7 neurons was incubated with 5 µCi [^3H]myo-Ins in 3 ml DMEM overnight to prelabel the phosphoinositide InsP3 may contain. The neurons were washed with PBS and 3 ml of PBS containing 4.5 g/l glucose was added. Preparations of sphingosine, lysocerebroside, lysosphingomyelin (Sigma Chemical Co., St. Louis, MO) and combinations of each were prepared as the hydrochloride salt dissolved in PBS. The lysosphingolipids were added to the Petri dishes to produce a concentration ranging from 0 - 150 µM. The dishes were held at room temperature for 0.5, 1, or 2 hours, then washed with PBS and incubated with 5 Units of trypsin in glucose/PBS for […] at 37°C. Trypsinization removes non-specifically bound lysosphingolipids that may adhere to extracellular plasma membrane protein domains. Non-specific adherence between cationic micelles of lysosphingolipids and the neuronal glycocalyx is avoided by performing the experiments with lysosphingolipid concentrations below the critical micelle concentration. Neurons were analyzed for lysosphingolipid content as described above.
SMILES,KM [1],diminution in Vmax [1],increase in calcium ion concentration required for optimal activity [1],"lysosphingolipid content, 0 hours of incubation [2]","lysosphingolipid content, 0.5 hours of incubation [2]","lysosphingolipid content, 1.0 hours of incubation [2]","lysosphingolipid content, 2.0 hours of incubation [2]","lysosphingolipid content, 3.0 hours of incubation [2]",content of sphingosine in the neurons [3],KM for substrate phosphatidylinositol bis-phosphate ([1]; 10 µM sphingosine),calcium ion concentration required for optimal activity ([1]; 10 µM sphingosine),"increase in Vmax ([1]; 10 µM sphingosine, each isoform)"
"CCCCCCCCCCCCC/C=C/[C@@H](O)[C@@H](N)COP(=O)([O-])OCC[N+](C)(C)C [lysosphingomyelin, sphingosyl phosphorylcholine]",no change,60% ± 10%,5 fold,5±1 pmoles lysosphingolipid/mg plasma membrane protein,8±2 pmoles lysosphingolipid/mg plasma membrane protein,20±5 pmoles lysosphingolipid/mg plasma membrane protein,45±5 pmoles lysosphingolipid/mg plasma membrane protein,55±15 pmoles lysosphingolipid/mg plasma membrane protein,105 ± 0.15 pmoles/mg protein,–,–,–
CCCCCCCCCCCCC/C=C/[C@@H](O)[C@@H](N)CO[C@@H]1O[C@H](CO)[C@H](O)[C@H](O)[C@H]1O [psychosine],no change,60% ± 10%,5 fold,25±5 pmoles lysosphingolipid/mg plasma membrane protein,35±15 pmoles lysosphingolipid/mg plasma membrane protein,45±10 pmoles lysosphingolipid/mg plasma membrane protein,80±5 pmoles lysosphingolipid/mg plasma membrane protein,80±5 pmoles lysosphingolipid/mg plasma membrane protein,220 ± 45 pmoles/mg protein,–,–,–
CCCCCCCCCCCCC/C=C/[C@@H](O)[C@@H](N)CO [sphingosine],–,–,–,85±15 pmoles lysosphingolipid/mg plasma membrane protein,85±20 pmoles lysosphingolipid/mg plasma membrane protein,110±15 pmoles lysosphingolipid/mg plasma membrane protein,105±5 pmoles lysosphingolipid/mg plasma membrane protein,115±15 pmoles lysosphingolipid/mg plasma membrane protein,430 ± 70 pmoles/mg protein,no effect,a decrease,approximately 2 fold
